This passage reports half-life results from patent US20240368191A1, “HETEROCYCLIC COMPOUNDS AND USES THEREOF” (Kumquat Biosciences Inc., priority 2021, published 2024).

The data set can be described thus: Metabolic (microsomal) stability assay. The note with it: pooled liver microsomes, pH 7.4.
As for `N#Cc1c(N)sc2c(F)ccc(-c3c(Cl)cc4c(N5CC6(CN(C(=O)n7cncn7)CCO6)C5)nc(OC[C@@]56CCCN5C[C@H](F)C6)nc4c3F)c12` [Compound A140, 4-(4-(8-(1H-1,2,4-triazole-1-carbonyl)-5-oxa-2,8-diaza-spiro[3.5]nonan-2-yl)-6-chloro-8-fluoro-2-(((2R,7aS)-2-fluoro-tetrahydro-1H-pyrrolizin-7a(5H)-yl)methoxy)quinazolin-7-yl)-2-amino-7-fluorobenzo-[b]thiophene-3-carbonitrile], the half-life – broadly, the time needed for the level to fall by half in the phase considered – at 0.5 μM was over 10 min.
In the case of `N#CC[C@H]1CN(c2nc(OC[C@@]34CCCN3C[C@H](F)C4)nc3c(F)c(-c4ccc(F)c5sc(N)nc45)c(Cl)cc23)CCN1C(=O)n1cncn1` [Compound A145, 2-((2S)-4-(7-(2-amino-7-fluorobenzo[d]thiazol-4-yl)-6-chloro-8-fluoro-2-(((2R,7aS)-2-fluorotetrahydro-1H-pyrrolizin-7a(5H)-yl)methoxy)quinazolin-4-yl)-1-(1H-1,2,4-triazole-1-carbonyl)piperazin-2-yl)aceto-nitrile] it was over 10 min; in that of `Nc1nc2c(-c3c(Cl)cc4c(N5CCN(C(=O)n6cncn6)CC5)nc(OC[C@@]56CCCN5C[C@H](F)C6)nc4c3F)ccc(F)c2s1` [Compound A146, (4-(7-(2-amino-7-fluorobenzo-[d]thiazol-4-yl)-6-chloro-8-fluoro-2-(((2R,7aS)-2-fluoro-tetrahydro-1H-pyrrolizin-7a(5H)-yl)methoxy)quinazolin-4-yl)piperazin-1-yl)(1H-1,2,4-triazol-1-yl)methanone], over 10 min.
Regarding `Cc1ncn(C(=O)N2CCCC(Oc3nc(OC[C@@]45CCCN4C[C@H](F)C5)nc4c(F)c(-c5ccc(F)c6sc(N)c(C#N)c56)c(Cl)cc34)CC2)n1` (stereo partly drawn) [Compound A174, 2-amino-4-(6-chloro-8-fluoro-2-(((2R,7aS)-2-fluorotetra-hydro-1H-pyrrolizin-7a(5H)-yl)methoxy)-4-((1-(3-methyl-1H-1,2,4-triazole-1-carbonyl)-azepan-4-yl)oxy)quinazolin-7-yl)-7-fluorobenzo[b]thiophene-3-carbonitrile], the half-life at 0.5 μM was over 10 min.
Under `N#Cc1c(N)sc2c(F)ccc(-c3c(Cl)cc4c(N5CCC6CN(C(=O)n7cncn7)CC65)nc(OC[C@@]56CCCN5C[C@H](F)C6)nc4c3F)c12` (stereo partly drawn) [Compound A178, 4-(4-(5-(1H-1,2,4-triazole-1-carbonyl)hexahydropyrrolo[3,4-b]pyrrol-1(2H)-yl)-6-chloro-8-fluoro-2-(((2R,7aS)-2-fluoro-tetrahydro-1H-pyrrolizin-7a(5H)-yl)methoxy)quinazolin-7-yl)-2-amino-7-fluorobenzo-[b]thiophene-3-carbonitrile] stands over 10 min.
In the case of `N#Cc1c(N)sc2c(F)ccc(-c3c(Cl)cc4c(N5CCC6C5CCCN6C(=O)n5cncn5)nc(OC[C@@]56CCCN5C[C@H](F)C6)nc4c3F)c12` (stereo partly drawn) [Compound A181, 4-(4-(4-(1H-1,2,4-triazole-1-carbonyl)octahydro-1H-pyrrolo[3,2-b]pyridin-1-yl)-6-chloro-8-fluoro-2-(((2R,7aS)-2-fluorotetrahydro-1H-pyrrol-izin-7a(5H)-yl)methoxy)quin-azolin-7-yl)-2-amino-7-fluoro-benzo[b]thiophene-3-carbonitrile] it was over 10 min.
Under `Nc1nc2c(-c3c(Cl)cc4c(N5CCC6(CN(C(=O)n7cncn7)C6)C5)nc(OC[C@@]56CCCN5C[C@H](F)C6)nc4c3F)ccc(F)c2s1` [Compound A201, (6-(7-(2-amino-7-fluorobenzo-[d]thiazol-4-yl)-6-chloro-8-fluoro-2-(((2R,7aS)-2-fluoro-tetrahydro-1H-pyrrolizin-7a(5H)-yl)methoxy)quinazolin-4-yl)-2,6-diazaspiro[3.4]octan-2-yl)(1H-1,2,4-triazol-1-yl)-methanone] stands over 10 min; under `C[C@@H]1CN(C(=O)n2cncn2)[C@@H](C)CN1c1nc(OC[C@@]23CCCN2C[C@H](F)C3)nc2c(F)c(-c3ccc(F)c4sc(N)nc34)c(Cl)cc12` [Compound A244, ((2S,5R)-4-(7-(2-amino-7-fluorobenzo[d]thiazol-4-yl)-6-chloro-8-fluoro-2-(((2R,7aS)-2-fluorotetrahydro-1H-pyrrolizin-7a(5H)-yl)methoxy)quinazolin-4-yl)-2,5-dimethylpiperazin-1-yl)(1H-1,2,4-triazol-1-yl)meth-anone], over 10 min.
In turn, `Nc1nc2c(-c3c(Cl)cc4c(N5CC6(CN(C(=O)n7cncn7)CCO6)C5)nc(OC[C@@]56CCCN5C[C@H](F)C6)nc4c3F)ccc(F)c2s1` [Compound A268, (2-(7-(2-amino-7-fluorobenzo-[d]thiazol-4-yl)-6-chloro-8-fluoro-2-(((2R,7aS)-2-fluoro-tetrahydro-1H-pyrrolizin-7a(5H)-yl)methoxy)quinazolin-4-yl)-5-oxa-2,8-diazaspiro[3.5]-nonan-8-yl)(1H-1,2,4-triazol-1-yl)methanone] came in with a half-life at 0.5 μM of over 10 min.
In the case of `Nc1nc2c(-c3c(Cl)cc4c(N5CCOC6(CN(C(=O)n7cncn7)C6)C5)nc(OC[C@@]56CCCN5C[C@H](F)C6)nc4c3F)ccc(F)c2s1` [Compound A273, (8-(7-(2-amino-7-fluorobenzo-[d]thiazol-4-yl)-6-chloro-8-fluoro-2-(((2R,7aS)-2-fluoro-tetrahydro-1H-pyrrolizin-7a(5H)-yl)methoxy)quinazolin-4-yl)-5-oxa-2,8-diazaspiro[3.5]-nonan-2-yl)(1H-1,2,4-triazol-1-yl)methanone] it was over 10 min; in that of `N#Cc1c(N)sc2c(F)ccc(-c3c(Cl)cc4c(N5CCC6(CN(C(=O)n7cncn7)C6)C5)nc(OC[C@@]56CCCN5C[C@H](F)C6)nc4c3F)c12` [Compound A277, 4-(4-(2-(1H-1,2,4-triazole-1-carbonyl)-2,6-diazaspiro[3.4]-octan-6-yl)-6-chloro-8-fluoro-2-(((2R,7aS)-2-fluorotetrahydro-1H-pyrrolizin-7a(5H)-yl)meth-oxy)quinazolin-7-yl)-2-amino-7-fluorobenzo[b]thiophene-3-carbonitrile], over 10 min; in that of `N#Cc1c(N)sc2c(F)ccc(-c3c(Cl)cc4c(N5CC6CCCN(C(=O)n7cncn7)C6C5)nc(OC[C@@]56CCCN5C[C@H](F)C6)nc4c3F)c12` (stereo partly drawn) [Compound A284, 4-(4-(1-(1H-1,2,4-triazole-1-carbonyl)octahydro-6H-pyrrolo-[3,4-b]pyridin-6-yl)-6-chloro-8-fluoro-2-(((2R,7aS)-2-fluoro-tetrahydro-1H-pyrrolizin-7a(5H)-yl)methoxy)quinazolin-7-yl)-2-amino-7-fluorobenzo-[b]thiophene-3-carbonitrile], over 10 min.
Under `Nc1nc2c(-c3c(Cl)cc4c(N5CCC56CCN(C(=O)n5cncn5)CC6)nc(OC[C@@]56CCCN5C[C@H](F)C6)nc4c3F)ccc(F)c2s1` [Compound A288, (1-(7-(2-amino-7-fluorobenzo-[d]thiazol-4-yl)-6-chloro-8-fluoro-2-(((2R,7aS)-2-fluoro-tetrahydro-1H-pyrrolizin-7a(5H)-yl)methoxy)quinazolin-4-yl)-1,7-diazaspiro[3.5]nonan-7-yl)(1H-1,2,4-triazol-1-yl)-methanone] stands over 10 min.
